Measured values taken from patent EP0641563A1, “REMEDY FOR CATARACT AND PRODUCTION THEREOF” (TAISHO PHARMACEUTICAL CO. LTD, priority 1992, dated 1993).

Key:
cultured rat lenses [1] = experiment: Calcium ionophore-induced cataract in cultured rat lenses (opacity by image analyser); assay type: cell-based, male S.D. rats; conditions: 10 µM calcium ionophore (A23187)
Method: Lenses were dissected from 4-week-old male S.D. rats, and cultured for one day in (1) a basic culture medium (MEM), (2) a culture medium of (1) supplemented with 10 µM calcium ionophore (A23187), or (3) a culture medium of (2) supplemented with 4, 20, 100 or 500 µM E-64 or E-64d. Thereafter, the medium was changed as follows: (1) basic medium, (2) basic medium, and (3) basic medium with several concentrations of E-64 or E-64d, and culture was continued for 4 more days, after which opacity of lenses was measured using an image analyser. The ratio of the inhibition of the development of lens opacity by each test drug (E-64, E-64d) to that in the control group is shown in Fig. 2. […] As is evident from the results of Fig. 2, E-64 or E-64d inhibited the opacity of lens caused by calcium ionophore in a concentration-dependent manner. The inhibition effect was stronger in E-64d than in E-64, and the opacity of lens was inhibited by 50% or more at a concentration of 20 µM.

cultured rat lenses [2] = conditions: selenite cataract models and diabetic cataract models of cultured rat lenses; Atarashii Ganka, vol. 6, 1573-1576 (1989); cited from earlier work
[3] = system: galactose cataract in rats; experiment: Galactose cataract in rats (slit lamp, Sippel grades); assay type: in vivo, male SD rats; conditions: for progression of cataract (grades of Sippel) compared with control: Wilcoxon method; for progression of cataract compared with control, time series variance analysis: up to day 28
Method: Three-week-old male SD rats (n=30) were bred in a breeding room having a temperature of 24±4°C and humidity of 55±15%, on Labo MR stock (manufactured by Nihon Nosan Kogyo Co., Ltd., Japan) and tap water.
As the test drugs, used were (1) 1% solution of E-64c prepared by dissolving E-64c bulk powder in 0.1N sodium hydroxide, adjusting the pH to 5 with 0.1N hydrochloric acid, and adding purified water; and (2) 1% suspension of E-64d prepared by suspending E-64d bulk powder in 0.3% Tween 80, the osmotic pressure of both of which having been adjusted to 290 mOsm/kg H₂O with sodium chloride. As a control, used was (3) physiological saline.
The test animals were pre-bred for a week, and then bred on a 25% galactose feed (solidified product of a mixture of galactose and Labo MR stock powder at the ratio of 1:3). The animals were fed for 24 hours daily for the first 7 days, and 9 hours a day from the 8th day. The test drugs were administered from the day when galactose feeding was initiated, and (1) was administered intraperitoneally once a day (100 mg/kg, 1 ml/100g as liquid), and (2) was instilled only in the right eye 4 times a day by 5 µl at a time without treatment to the left eye. The control group was instilled with (3) in the same manner as in the case of (2) without treatment to the left eye.
Lenses were observed under mydriasis using a slit lamp (SL-5D) at 7 day-intervals from the initiation of the test drug and physiological saline (control) administrations until day 28, and the progression of cataract up to the mature cataract was evaluated according to the following 8 stages of cataract grades defined by Sippel [Invest. Ophthalmol., vol. 6, 568-575 (1966)].

[4] = Corneal permeability in vitro (side-by-side permeation cell)
Method: Corneal permeability was tested in vitro using a side-by-side type permeation cell equipped with cornea from albino rabbit. A 1% E-64c solution prepared using a buffer having the following formulation was charged in a donor cell, and the following buffer was charged in a receptor cell, and they were incubated at 34°C. The amount of E-64c permeated into the receptor cell was measured with time. The accumulative amount of the permeated E-64c was measured 1, 2, and 3 hours later.
In the same manner as in Experiment Example 4, corneal permeability of a 1% E-64d suspension (pH 7) was examined.

cataract in Nakano mouse = experiment: Cataract in Nakano mouse, intraperitoneal administration; assay type: in vivo, Nakano mice
Method: Thirty-five Nakano mice (9 days old) were divided into three groups, and each group was intraperitoneally administered once a day with E-64d at 30 mg/kg or 100 mg/kg, or 5% gum arabic solution as a control. E-64d was suspended in 5% gum arabic solution at a concentration of 0.15% or 0.5%, respectively, and administered to the mice. After the eyes of the mice opened, opacity of the lens was observed using a slip lamp to evaluate progress of cataract.

[5] = pH stability of 1% E-64d suspensions; assay type: physicochemical; conditions: 1% E-64d suspension
Description: The stability of 1% E-64d suspensions adjusted to various pHs was examined. […]

In the case of `CC(C)C[C@H](NC(=O)[C@H]1O[C@@H]1C(=O)O)C(=O)NCCCCNC(=N)N` [E-64, trans-epoxysuccinyl-leucylamide-(4-guanidino)butane, reference compound], the “inhibition of the opacity of lens caused by calcium ionophore” value (cultured rat lenses [1]; 4, 20, 100 or 500 µM) is given as “concentration-dependent” and the “effect on opacity of lens” value (cultured rat lenses [2]) is given as “can prevent opacity of lens”.

For `CC(C)CCNC(=O)[C@H](CC(C)C)NC(=O)[C@H]1O[C@@H]1C(=O)O` [E-64c, (+)-(2S,3S)-3[(S)-3-methyl-1-(3-methylbutylcarbamoyl)butylcarbamoyl]-2-oxiranecarboxylic acid], the “progression of cataract (grades of Sippel) compared with control” value ([3]; 1% E-64c solution, 100 mg/kg intraperitoneally once a day, 14 days from initiation of administration) was “significant delay of cataract”, the “progression of cataract compared with control, time series variance analysis” value ([3]; 1% E-64c solution, 100 mg/kg intraperitoneally once a day) was “significant delay of cataract” and the “corneal permeability, dependence on pH” value [4] was “pH-dependent”. For the same compound, the “effect on corneal tissue” value ([4]; 1% E-64c solution, pH range of 3 or below) was “tissue disorders causing corneal opacity were observed”.

With `CCOC(=O)[C@H]1O[C@@H]1C(=O)N[C@@H](CC(C)C)C(=O)NCCC(C)C` [E-64d] the “progression of cataract (grades of Sippel) compared with control” value ([3]; 1% E-64d suspension instilled 4 times a day, 5 µl, 7 days from initiation of administration) was “significant delay of cataract”, the “progression of cataract (grades of Sippel) compared with control” value ([3]; 1% E-64d suspension instilled 4 times a day, 5 µl, 14 days from initiation of administration) was “significant delay of cataract” and the “progression of cataract (grades of Sippel) compared with control” value ([3]; 1% E-64d suspension instilled 4 times a day, 5 µl, 21 days from initiation of administration) was “delaying tendency”. For the same compound, the “progression of cataract compared with control, time series variance analysis” value ([3]; 1% E-64d suspension instilled 4 times a day, 5 µl) was “significant delay of cataract”, the “inhibition effect on lens opacity, E-64d compared with E-64” value (cultured rat lenses [1]; 4, 20, 100 or 500 µM) was “stronger” and the “inhibition of the opacity of lens caused by calcium ionophore” value (cultured rat lenses [1]; 4, 20, 100 or 500 µM) was “concentration-dependent”. For the same compound, the inhibition at 20 µM (cultured rat lenses [1]; Rattus norvegicus, 120 h, 20 µM, 5 days culture, read-out: percent inhibition of lens opacity based on the opacity in the control group) was no less than 50%, the “E-64d in the receptor solution” value ([4]; pH 7) was “not detected” and the “proportion of the group showing nuclear opacity” value (cataract in Nakano mouse; 30 mg/kg intraperitoneally once a day, mice 21 days old (control about 40%)) was “about 12%”. The “development of nuclear opacity” value (cataract in Nakano mouse; 100 mg/kg intraperitoneally once a day, mice 21 days old (control about 40%)) was “no development of opacity was observed”, the “degree of nuclear opacity compared with control, time-course observation” value (cataract in Nakano mouse; E-64d 30 or 100 mg/kg intraperitoneally once a day) was “limited to a smaller degree” and the stability ([5]; in the vicinity of pH 4-6) was “stable”. For the same compound, the residual rate ([5]; pH 4, 40°C (4 wk), 40320 min) was 96.6%, the residual rate ([5]; pH 4, 60°C (1 wk), 10080 min) was 98.7% and the residual rate ([5]; pH 5, 40°C (4 wk), 40320 min) was 99.8%. The residual rate ([5]; pH 5, 60°C (1 wk), 10080 min) was 98.7%, the residual rate ([5]; pH 6, 40°C (4 wk), 40320 min) was 95.2% and the residual rate ([5]; pH 6, 60°C (1 wk), 10080 min) was 97.9%. For the same compound, the residual rate ([5]; pH 7, 40°C (4 wk), 40320 min) was 75.7%.
